Results taken from patent US4279994A (priority 1979, dated 1981).
Counter-ions that a name gives are not always drawn. Like-named read-outs stand apart in the source and are kept apart here.

What was measured:
Assay type in all cases: biochemical
[1] = biological target: T1, human serum containing naturally occurring pseudocholinesterases (Homo sapiens, UniProt P06276)
T1 construct: human serum containing naturally occurring pseudocholinesterases; from tissue; host or cells: human serum (Serum A, Serum B)
T1 sequence (P06276 29-602): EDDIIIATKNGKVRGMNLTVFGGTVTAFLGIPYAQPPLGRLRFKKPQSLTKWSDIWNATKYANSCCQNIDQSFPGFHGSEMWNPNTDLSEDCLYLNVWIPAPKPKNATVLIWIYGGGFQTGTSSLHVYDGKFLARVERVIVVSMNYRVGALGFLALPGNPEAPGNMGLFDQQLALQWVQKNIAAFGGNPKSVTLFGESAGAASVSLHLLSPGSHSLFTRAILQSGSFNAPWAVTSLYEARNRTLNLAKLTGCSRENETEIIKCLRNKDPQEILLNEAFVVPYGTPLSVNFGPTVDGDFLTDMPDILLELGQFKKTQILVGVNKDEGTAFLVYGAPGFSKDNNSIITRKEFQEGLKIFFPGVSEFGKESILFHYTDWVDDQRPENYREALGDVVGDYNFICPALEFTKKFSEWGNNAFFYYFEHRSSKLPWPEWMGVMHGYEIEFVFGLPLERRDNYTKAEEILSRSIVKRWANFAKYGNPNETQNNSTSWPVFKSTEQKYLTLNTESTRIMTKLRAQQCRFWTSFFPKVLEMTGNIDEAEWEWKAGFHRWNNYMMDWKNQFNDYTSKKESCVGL

lipase = assay: Effect on lipase under the test conditions
butyryl cholinesterase = butyryl cholinesterase (Homo sapiens, UniProt P06276)
Sequence of butyryl cholinesterase (P06276 29-602): as above

pseudocholinesterase = biological target: T2, pseudocholinesterase (Homo sapiens, UniProt P06276); assay: Eserine salicylate added to fresh human serum specimens, absorbance change between 10 and 30 minutes incubation (Example 4); settings: for Absorbance change: 10 to 30 minutes incubation
T2 construct: hydrolysis of S-acyl substrate (BALB) with chromogenic sulfhydryl reagent
T2 sequence (P06276 29-602): as above

acetyl cholinesterase = acetyl cholinesterase (Homo sapiens, UniProt P22303)
Sequence of acetyl cholinesterase (P22303 32-614): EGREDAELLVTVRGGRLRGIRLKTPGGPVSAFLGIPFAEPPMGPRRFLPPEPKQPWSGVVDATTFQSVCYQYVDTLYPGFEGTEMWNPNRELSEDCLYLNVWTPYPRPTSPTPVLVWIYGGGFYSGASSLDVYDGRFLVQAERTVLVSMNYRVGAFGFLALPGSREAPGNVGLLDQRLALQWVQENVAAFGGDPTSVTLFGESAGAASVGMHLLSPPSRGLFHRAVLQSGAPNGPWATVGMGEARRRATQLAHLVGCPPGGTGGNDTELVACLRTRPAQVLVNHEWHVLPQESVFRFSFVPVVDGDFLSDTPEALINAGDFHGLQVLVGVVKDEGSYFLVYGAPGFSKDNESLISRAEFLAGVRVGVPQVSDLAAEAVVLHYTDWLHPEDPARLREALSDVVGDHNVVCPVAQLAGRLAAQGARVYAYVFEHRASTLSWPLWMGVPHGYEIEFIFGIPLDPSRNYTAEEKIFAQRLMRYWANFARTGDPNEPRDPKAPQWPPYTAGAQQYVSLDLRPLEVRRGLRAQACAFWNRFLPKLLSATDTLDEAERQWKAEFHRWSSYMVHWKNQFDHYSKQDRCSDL

[2] = Reagent without lipase and without eserine salt, used to assay cholinesterase solutions (Example 4); settings: 1.17 units of acetyl cholinesterase or 0.36 units of butyryl cholinesterase; no lipase and no eserine salt
Experimental: The four-reagent kit of Example 1 is utilized as follows, using duplicate specimen vials labelled "Patient-Blank", "Patient", "Blank 10 Minutes" and "Blank 30 Minutes", and the following procedure.
The activity of serum lipase is proportional to the absorbance at 412 nanometers, and is calculated as follows:
Lipase activity per 20 minutes= Absorbance [patient vial-Blank vial] (30 minutes) -Absorbance [patient vial-Blank vial] (10 minutes)
A reagent composition is formulated to contain the following: […]
Final pH about 8.8. Using a procedure similar to that of Example 2, the reagent was used to assay solutions containing 1.17 units of acetyl cholinesterase (a true cholinesterase) or 0.36 units of butyryl cholinesterase (a pseudocholinesterase). Acetyl cholinesterase produced an absorbance change of 0.011 absorbance units and butyryl cholinesterase produced a change of 0.421 absorbance units.

Molecule: CNC(=O)Oc1ccc2c(c1)[C@]1(C)CCN(C)[C@@H]1N2C [Eserine Salicylate, Eserine salicylate]
- Activity, Serum A [1]: 0.078 ΔAbsorbance per 20 minutes incubation
- Activity, Serum B [1]: 0.092 ΔAbsorbance per 20 minutes incubation
- inhibition of lipase (lipase): does not inhibit lipase
- Activity, Butyryl Cholinesterase (butyryl cholinesterase): 0.182 ΔAbsorbance per 20 minutes incubation
- inhibition of BALB hydrolysis by pseudocholinesterase (in words) (butyryl cholinesterase): significant inhibition
- specificity for serum pseudocholinesterase (pseudocholinesterase): highly specific for serum pseudocholinesterase
- improvement with increasing inhibitor concentration (pseudocholinesterase; concentrations increasing from 0.02 to 0.05 millimolar): little or no improvement
- inhibition of pseudocholinesterase (in words) (pseudocholinesterase; fresh human serum, Example 4): inhibition of pseudocholinesterase
- Absorbance change (pseudocholinesterase; fresh human serum, 5 microliters (0.005 millimolar) of 1 millimolar eserine salicylate added): 0.501
- Absorbance change (pseudocholinesterase; fresh human serum, 10 microliters of 1 millimolar eserine salicylate added): 0.495
- Absorbance change (pseudocholinesterase; fresh human serum, 20 microliters of 1 millimolar eserine salicylate added): 0.475
- Absorbance change (pseudocholinesterase; fresh human serum, 30 microliters of 1 millimolar eserine salicylate added): 0.490
- Absorbance change (pseudocholinesterase; fresh human serum, 40 microliters of 1 millimolar eserine salicylate added): 0.496
- Absorbance change (pseudocholinesterase; fresh human serum, 50 microliters of 1 millimolar eserine salicylate added): 0.492
- Activity, Acetyl Cholinesterase (acetyl cholinesterase): 0.027 ΔAbsorbance per 20 minutes incubation

Molecule: CN(C)C(=O)Oc1cccc([N+](C)(C)C)c1 [Neostigmine Methyl Sulfate, neostigmine methylsulfate]
- Activity, Serum A [1]: 0.098 ΔAbsorbance per 20 minutes incubation
- Activity, Serum B [1]: 0.081 ΔAbsorbance per 20 minutes incubation
- Activity, Butyryl Cholinesterase (butyryl cholinesterase): 0.187 ΔAbsorbance per 20 minutes incubation
- inhibition of BALB hydrolysis by pseudocholinesterase (in words) (butyryl cholinesterase): significant inhibition
- Activity, Acetyl Cholinesterase (acetyl cholinesterase): 0.025 ΔAbsorbance per 20 minutes incubation

Molecule: Acetyl cholinesterase
- Absorbance change [2]: 0.011 absorbance units

Molecule: O=S(=O)(F)Cc1ccccc1 [PMSF, phenyl methyl sulfonyl fluoride]
- Activity, Serum A ([1]; 50 microliters of human Serum A, Eserine Salicylate 0.037 μm, Neostigmine Methyl Sulfate 0.037 mM, PMSF 0.37 mM): 0.487 ΔAbsorbance per 20 minutes incubation
- Activity, Serum B ([1]; 50 microliters of human Serum B, Eserine Salicylate 0.037 μm, Neostigmine Methyl Sulfate 0.037 mM, PMSF 0.37 mM): 0.383 ΔAbsorbance per 20 minutes incubation
- effect in inhibiting the interfering hydrolysis of the S-acyl compound (in words) ([1]; serum samples, without pseudocholinesterase inhibitor): little or no effect
- Activity, Butyryl Cholinesterase (butyryl cholinesterase; 50 microliters of butyryl cholinesterase, 7.2 units per ml, Eserine Salicylate 0.037 μm, Neostigmine Methyl Sulfate 0.037 mM, PMSF 0.37 mM): 0.338 ΔAbsorbance per 20 minutes incubation
- Activity, Acetyl Cholinesterase (acetyl cholinesterase; 50 microliters of acetyl cholinesterase, 10.4 units per ml, Neostigmine Methyl Sulfate 0.037 mM, PMSF 0.37 mM): 0.021 ΔAbsorbance per 20 minutes incubation
